Experimental data taken from PMC11235171, “Microproteins encoded by noncanonical ORFs are a major source of tumor-specific antigens in a liver cancer patient meta-cohort” (Science Advances, 2024).

Experiments:
[1] = system: HHD-DR1 mice; experiment: IFN-γ intracellular cytokine staining (flow cytometry) of CD4+ and CD8+ T cells after peptide immunization; type: in vivo, mouse; conditions: splenocytes of immunized mice stimulated with peptide 10 μM, 4 hours, GolgiStop/GolgiPlug; cell density plots
Method: (§1) Eight-week-old female HHD-DR1 mice, transgenic for human HLA-A*02:01 molecules ([82]), were used. After study approval by the ethics review committee (reference no. 036-21), mice were bred and housed under pathogen-free conditions in the animal facility of the Center for Applied Medical Research (CIMA). Mice (n = 4 per group) were immunized with peptides (100 nmol per peptide), polyinosinic:polycytidylic acid (50 μg per mouse), and αCD40 (50 μg per mouse). The peptides and adjuvants were administered simultaneously via subcutaneous injection of 100 μl of the mixture resuspended in phosphate-buffered saline. Mice received a boost on day 7 and were euthanized on day 14.
Splenocytes were stimulated with the peptides (10 μM) in the presence of GolgiStop and GolgiPlug (BD Biosciences). Four hours later, cells were surface stained with the following antibodies: CD3ε-Percp-Cy5 (145-2 C11), CD4-FITC (RM4-5), and CD8-BV421 (53-6.7) from BioLegend. Next, cells were fixed and permeabilized using BD Cytofix/Cytoperm Fixation/Permeablization Kit and intracellularly stained with IFNγ-PE (XMG1.2) antibodies. Samples were acquired with a Cytoflex (Beckman Coulter) flow cytometer and were analyzed using FlowJo software (Tree Star).

[2] = system: HHD-DR1 mice; experiment: IFN-γ ELISPOT on splenocytes of peptide-immunized HLA-A*02:01 transgenic mice; type: in vivo, mouse; conditions: for IFN-γ signal after peptide immunization (immunogenicity), in words: HLA-A*02:01 / HLA-DRB1*01 transgenic mice immunized twice, T cell response measured at day 14 by IFN-γ ELISPOT
Method: as §1
The spleens of immunized mice were processed to measure the number of IFN-γ secreting cells. Splenocytes (8 × 10^5 cells per well) were stimulated for 24 hours with peptides (10 μg/ml). The number of IFN-γ secreting cells was quantified by ImmunoSpot automated counter (Cellular Technology Limited) using the Spot 3 CTL CellCounting software.

Sequence | IFN-γ producing CD8+ versus CD4+ T cells (ICS), in words [1] | number of IFN-γ secreting cells (IFNγSFC) ([2]; HHD-DR1 mice, n = 4 per group, 100 nmol peptide + poly I:C + αCD40 s.c., boost day 7, spleens day 14, splenocytes stimulated 24 hours with peptide 10 μg/ml, all four replicates) | IFN-γ signal after peptide immunization (immunogenicity), in words [2]
WMSLDWELYV | signal for CD8+ cells only | > 1000 IFNγSFC per 8 × 10^5 cells | strong IFN-γ signal
GLFHIYHKI | signal for CD8+ cells only |  | strong IFN-γ signal
